# According to paper PMC4926125, “Evaluation of the Toxicity and Toxicokinetics of Cereulide from an Emetic Bacillus cereus Strain of Milk Origin” (Toxins, 2016):
# Like-named read-outs stand apart in the source and are kept apart here.
# What was measured:
# [1] = Toxicokinetics of cereulide in rabbits after a single intravenous injection (plasma, UPLC-MS/MS); format: in vivo, New Zealand White rabbits; settings: for MRT / Tmax: rabbit; for MRT: read-out: MRTlast, mean retention time until the last time point; for Tmax: read-out: Tmax, time to peak concentration
# Protocol: A total number of eight rabbits (half female and half male) were used to evaluate the toxicokinetics of cereulide after a single administration of 5 μg cereulide. All plasma samples at different time points were collected, and the concentrations of cereulide were quantified by UPLC-MS/MS assay. The dynamic curve of cereulide in the plasma of rabbits is shown in Figure 3a, and toxicokinetic parameters were calculated using a non-compartmental model as shown in Table 1. […] The concentration of cereulide dropped down until 1 h and rose thereafter. Following a short stationary phase from 4 h to 8 h, the concentration of cereulide decreased gradually. No cereulide could be detected 32 h later. Additionally, no cereulide was detected in the rabbits treated by 0.9% saline-methanol (10:90, v/v) based on our established UPLC-MS/MS method.
# (§1) This animal study was approved by the Institutional Animal Care and Use Committee at the China Agricultural University (SYXK (2012-0037), 28 December 2012), and all the operations were conducted according to the biosafety procedures. Eight adult New Zealand White rabbits (four female and four male) with weights of 2.0 ± 0.3 kg were used in this study. A single intravenous dose of 5 μg cereulide dissolved in 0.9% saline-methanol (10:90, v/v; the amount of methanol injected to rabbit was about 1.8 g/kg body weight) was administrated. Two other rabbits (one female and one male) were treated by 0.9% saline-methanol (10:90, v/v) as control. Blood samples were collected after injection at different time points 0, 0.2, 0.5, 1, 2, 3, 4, 5, 6, 8, 10, 12, 16, 20, 24, 28, 32 h. All samples were centrifuged at 4 °C, 2000 g for 10 min. Plasma from each sample was collected and stored at −80 °C.
# The plasma samples were thawed to room temperature before analysis. Then 200 μL of each sample was spiked with 10 ng/mL valinomycin (Sigma-Aldrich, St. Louis, MO, USA) as internal standards in a 1.5 mL tube (Axygen, Union City, CA, USA). The extraction steps were as below. First 1 mL acetonitrile (Fisher Scientific, Waltham, PA, USA) was added to each sample and vortexed for 3 min. After centrifugation at 13,000 g for 10 min, the supernatants were transferred into new tubes. The extraction steps were repeated once and the supernatants were combined. The supernatants were evaporated under a flow of nitrogen gas at 50 °C. The dry samples were reconstituted with 500 μL methanol and water with the ratio of 9:1 (v/v), vortexed for 3 min and filtered through 0.22 μm filter membrane (PALL, Port Washington, NY, USA) before UPLC-MS/MS analysis.
# The presence of cereulide was confirmed in all extracts and quantified by UPLC-MS/MS as described before. UPLC-MS/MS (Waters, Milford, MA, USA) equipped with a RP C18 column (50 mm × 2.1 mm, 1.7 μm, Acquity UPLC, Milford, MA, USA) was used. A gradient program was applied with the mobile phase consisting of solvent A (0.1% formic acid (Dikma, Lake Forest, CA, USA) in water) and solvent B (0.1% formic acid in acetonitrile) as follows: 98%–10% A (0–1 min), 10%–0% A (1–3 min), 0%–98% A (3–5 min). The flow rate was set at 0.3 mL/min with the injection volume of 10 μL. A positive electrospray ionization (ESI^+) mode was chosen to analyze the transitions of m/z 1170.9 → 1125.9 for cereulide and m/z 1128.8 → 1084.3 for valinomycin, by multiple reaction monitoring (MRM) method. The cone voltages for cereulide and valinomycin were 10 V and 60 V, and collision energy were 20 eV and 37 eV, respectively. All data were acquired and processed by software Masslynx 4.1 (Waters, Milford, MA, USA, 2005). The toxicokinetic parameters of cereulide were analyzed by the commercial pharmacokinetic program Phoenix WinNonlin 5.2.1 (Certara, Princeton, NJ, USA).
# [2] = still active after heat treatment in food processing and passing through the intestinal tract; cited from earlier work
# Source text: B. cereus can be found in most common food matrices such as rice, pasta and dairy products, and it represents more than 68.0% of foodborne outbreaks in all food types. There is an increasing occurrence of B. cereus foodborne outbreaks. For example, B. cereus was responsible for 13.4% of bacterial foodborne outbreaks, ranking as the second among the most frequent bacterial causes of foodborne disease in Chinese inland provinces. In fact, the number of B. cereus contaminations is highly underestimated, because foodborne B. cereus disease is mild and self-limiting and is consequently ...
# [3] = system: aspartate aminotransferase (AST) in plasma; assay: Liver damage in rabbits evaluated by plasma AST concentration (indirect EIA); format: in vivo, New Zealand White rabbits; settings: mean ± SD, n = 8, control range 15.0 to 30.0 ng/mL
# Protocol: Liver damage in rabbits triggered by cereulide was evaluated by the concentration of aspartate aminotransferase (AST) in plasma. […] Liver function recovered, with the concentration of AST returning to the normal level 32 h after administration. In addition, the concentrations of AST in female rabbits were higher than those in males (Figure 3c), especially at the time point of 0.5 h (P = 0.0345).
# as §1, with “Blood samples were collected after injection at different time points 0, 0.2, 0.5, 1, 2, 3, 4, 5, 6, 8, 10, 12, 16, 20, 24, 28, 32 h. All samples were centrifuged at 4 °C, 2000 g for 10 min. Plasma from each sample was collected and stored at −80 °C.” left out
# Plasma samples at time points of 0.5, 6, 12, 24 and 32 h were evaluated concentrations of AST by indirect EIA according to the instruction (Beyotime Biotechnology, Beijing, China). […] Subsequently, the substrate was added with the absorbance at 450 nm.
# [4] = both sexes, New Zealand White, plasma, iv, 5 ug, single i.v. 5 μg cereulide/rabbit, plasma, UPLC-MS/MS, non-compartmental, n = 8, mean ± SD
# [5] = both sexes, New Zealand White, plasma, iv, 5 ug, single i.v. 5 μg cereulide/rabbit, plasma, UPLC-MS/MS, non-compartmental, n = 8, median
# [6] = single i.v. 5 μg cereulide/rabbit, plasma, UPLC-MS/MS (LOQ 1.5 ng/mL)
# [7] = single i.v. 5 μg cereulide/rabbit, plasma, UPLC-MS/MS, non-compartmental, n = 8, median
# [8] = single i.v. 5 μg cereulide/rabbit, plasma, UPLC-MS/MS, non-compartmental, n = 8, range
compound,measurement,setting,value
CC(C)C[C@H]1OC(=O)[C@H](C(C)C)NC(=O)[C@H](C(C)C)OC(=O)[C@@H](C)NC(=O)[C@@H](CC(C)C)OC(=O)[C@H](C(C)C)NC(=O)[C@H](C(C)C)OC(=O)[C@@H](C)NC(=O)[C@@H](CC(C)C)OC(=O)[C@H](C(C)C)NC(=O)[C@H](C(C)C)OC(=O)[C@@H](C)NC1=O [cereulide],AUC(0-t),"[1]; both sexes, New Zealand White, iv, 5 ug, single i.v. 5 μg cereulide/rabbit, plasma, UPLC-MS/MS, non-compartmental, n = 8, mean ± SD, read-out: AUC, area under the curve for the plasma concentration until the last time point",321 ± 240 ng·h/mL
same,AUC(0-inf),"[1]; both sexes, New Zealand White, iv, 5 ug, single i.v. 5 μg cereulide/rabbit, plasma, UPLC-MS/MS, non-compartmental, n = 8, mean ± SD, read-out: AUC∞, area under the curve until infinity",390 ± 258 ng·h/mL
same,clearance,"[1]; both sexes, New Zealand White, iv, 5 ug, single i.v. 5 μg cereulide/rabbit, plasma, UPLC-MS/MS, non-compartmental, n = 8, mean ± SD, read-out: Cl, clearance (converted)",0.318 mL/min
same,Cmax,"[1]; both sexes, New Zealand White, iv, 5 ug, single i.v. 5 μg cereulide/rabbit, plasma, UPLC-MS/MS, non-compartmental, n = 8, mean ± SD, read-out: Cmax, maximum concentration after intravenous administration",40.8 ± 21.6 ng/mL
same,half-life,"[1]; both sexes, New Zealand White, iv, 5 ug, single i.v. 5 μg cereulide/rabbit, plasma, UPLC-MS/MS, non-compartmental, n = 8, mean ± SD, read-out: HL_Lambda_z, elimination half-life (converted)",10.8 ± 9.1 h
same,Vd,"[1]; both sexes, New Zealand White, iv, 5 ug, single i.v. 5 μg cereulide/rabbit, plasma, UPLC-MS/MS, non-compartmental, n = 8, mean ± SD, read-out: Vd, volume of distribution",0.32 ± 0.4 L
same,MRT,[1]; [4],9.6 ± 2.9 h
same,Tmax,[1]; [4],2.6 ± 3.4 h
same,MRT,[1]; [5],10.6 h
same,Tmax,[1]; [5],0.2 h
same,"AUC, area under the curve for the plasma concentration until the last time point","[1]; single i.v. 5 μg cereulide/rabbit (ear vein), plasma 0-32 h, UPLC-MS/MS, non-compartmental model (WinNonlin), n = 8, median",309.3 ng·h/mL
same,time after which no cereulide could be detected in plasma,[1]; [6],32 h
same,time at which cereulide was detected in plasma after injection,[1]; [6],≤ 0.2 h
same,"Lambda_z, elimination rate constant","[1]; single i.v. 5 μg cereulide/rabbit, plasma, UPLC-MS/MS, non-compartmental, n = 8, mean ± SD",0.1 ± 0.1 h⁻¹
same,"AUC∞, area under the curve until infinity",[1]; [7],330.5 ng·h/mL
same,"Cl, clearance",[1]; [7],15.5 mL/h
same,"Cmax, maximum concentration after intravenous administration",[1]; [7],33.8 ng/mL
same,"HL_Lambda_z, elimination half-life",[1]; [7],6.9 h
same,"Lambda_z, elimination rate constant",[1]; [7],0.1 h⁻¹
same,"Vd, volume of distribution",[1]; [7],208.1 mL
same,"AUC, area under the curve for the plasma concentration until the last time point",[1]; [8],81.2 to 851.1 ng·h/mL
same,"AUC∞, area under the curve until infinity",[1]; [8],126.0 to 853.9 ng·h/mL
same,"Cl, clearance",[1]; [8],5.9 to 39.7 mL/h
same,"Cmax, maximum concentration after intravenous administration",[1]; [8],13.3 to 78.1 ng/mL
same,"HL_Lambda_z, elimination half-life",[1]; [8],1.9 to 24.5 h
same,"Lambda_z, elimination rate constant",[1]; [8],0.03 to 0.4 h⁻¹
same,"MRTlast, mean retention time until the last time point",[1]; [8],4.5 to 13.4 h
same,"Tmax, time to peak concentration",[1]; [8],0.2 to 8.0 h
same,"Vd, volume of distribution",[1]; [8],16.3 to 1254.5 mL
same,stability to heat and proteolysis,[2],"heat-stable, proteolytically resistant"
same,AST concentration in plasma,[3]; 0.5 h after single i.v. 5 μg cereulide,99.1 ± 32.2 ng/mL
same,AST concentration in plasma,[3]; 12 h after single i.v. 5 μg cereulide,97.3 ± 55.3 ng/mL
